Converted amounts (≈) assume the structure as drawn.
What was measured:
Solubility of substrate = type: physicochemical; conditions: read-out: S: Solubility
[1] = biological target: T1, γ-glutamyltranspeptidase (γ-GTP) (Homo sapiens, UniProt P19440); experiment: γ-GTP determination in serum (Example 3); type: biochemical; conditions: found with the compound as substrate; standard serum 235 mU/ml; 37° C., 5 minutes; wavelength of Table 2
T1 construct: from tissue; host or cells: serum
Description: In this example, 500 mg of compound Nos. 1, 3, 5, 7 and 9 each and 500 mg of glycylglycine were dissolved in 100 ml (pH=7.7) and 0.1M phosphate buffer. The resultant solutions were designated A-1, A-3, A-5, A-7 and A-9, respectively. 50 mg of 3-{N-(m-tolyl)-N-ethyl}amino-2-hydroxypropane sulfonic acid was dissolved in 100 ml of phosphate buffer solution to obtain solution B. 50 mg/ml sodium meta-periodate containing 1N-HCl solution was prepared as solution C.
6 ml of solution A-1, A-3, A-5, A-7 or A-9 was equally poured to 3 test tubes. The samples were incubated at 37° C. and to the solution was added […] of (a) serum sample (b) standard serum or (c) water. The mixtures were stirred and heated for 5 minutes. After 5 minutes had passed, 1 ml of solution B and 1 ml of solution C were added to each of the mixtures and the mixtures were incubated for 10 minutes after stirring. As the standard serum, a serum having 235 mU/ml of γ-GTP was used.
The γ-GTP activity of the serum sample can be calculated by the following equation. [formula]

[2] = Maximum wavelength of formed pigment; type: physicochemical
Description: 50 μl of 1 mM each free compound was added to 3 ml of 0.1M phosphate buffer containing 0.5 mg/ml EMSE and 1 U/ml laccase and the mixture was incubated at 37° C. for 5 minutes. The absorption of the reaction solution at λmax was measured. As a control, 5-aminosalicylic acid was used and the reaction of the compound with 2,6-xylenol was carried out in the presence of metaperiodate under strong alkaline conditions.

Stability of pigment = type: physicochemical

T1 sequence (P19440 1-380 limits assumed): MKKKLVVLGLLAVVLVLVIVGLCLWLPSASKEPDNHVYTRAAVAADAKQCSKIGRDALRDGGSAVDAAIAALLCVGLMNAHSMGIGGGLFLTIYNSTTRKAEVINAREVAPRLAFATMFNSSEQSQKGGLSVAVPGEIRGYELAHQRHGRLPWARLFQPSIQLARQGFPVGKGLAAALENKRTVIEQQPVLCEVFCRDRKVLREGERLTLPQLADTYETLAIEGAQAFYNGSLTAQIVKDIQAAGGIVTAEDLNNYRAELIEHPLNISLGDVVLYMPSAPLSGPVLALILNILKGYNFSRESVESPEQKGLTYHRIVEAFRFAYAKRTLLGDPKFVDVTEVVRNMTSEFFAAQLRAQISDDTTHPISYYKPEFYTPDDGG
T1 sequence (P19440 381-569 limits assumed): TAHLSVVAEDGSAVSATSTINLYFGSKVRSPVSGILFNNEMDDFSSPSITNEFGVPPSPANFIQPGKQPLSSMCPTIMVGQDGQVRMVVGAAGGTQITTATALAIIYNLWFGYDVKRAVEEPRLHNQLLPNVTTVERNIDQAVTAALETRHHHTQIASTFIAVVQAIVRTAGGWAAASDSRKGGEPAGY

Structure (SMILES)	solubility (Solubility of substrate)	γ-GTP activity of the serum sample [1]	λmax: Maximum wavelength [2]	ST: Stability of pigment (Stability of pigment)
N[C@@H](CCC(=O)Nc1ccc(N(CCCS(=O)(=O)O)CCCS(=O)(=O)O)c(S(=O)(=O)O)c1)C(=O)O [compound 7]	> 20 mg/mL	240 mU/ml	680 nm	93%
CN(CCCS(=O)(=O)O)c1ccc(NC(=O)CC[C@H](N)C(=O)O)cc1 [compound 3]	80 mg/mL (≈ 214 mM)	228 mU/ml	750 nm	> 96%
CCN(CC(O)CS(=O)(=O)O)c1ccc(NC(=O)CC[C@H](N)C(=O)O)cc1 (some centres unmarked) [compound 5]	170 mg/mL (≈ 421 mM)	236 mU/ml	740 nm	> 98%
N[C@@H](CCC(=O)Nc1ccc(N(CCCS(=O)(=O)O)CCCS(=O)(=O)O)c(Cl)c1)C(=O)O [compound 9]	> 200 mg/mL	242 mU/ml	685 nm	> 98%
N[C@@H](CCC(=O)Nc1ccc(N(CCCS(=O)(=O)O)CCCS(=O)(=O)O)cc1)C(=O)O [compound 1]	> 200 mg/mL	231 mU/ml	745 nm	> 98%

Source: patent US4877727A, “Substrate for determining leucine aminopeptidase or gamma-glutamyltranspeptase activity” (Kyowa Medex Co., Ltd., priority 1984, dated 1989)
